± gives the expanded uncertainty stated by the source.
Test: mn = molality of the nth substance listed, in mol/kg
Conditions: 298.15 K, Ring tensiometer

## C=CC(C)(C)O [2-methyl-3-buten-2-ol] + O
m1 = 0.001
  surface tension liquid-gas: 70.6 ± 0.9 mN/m
m1 = 0.003
  surface tension liquid-gas: 69.7 ± 0.9 mN/m
m1 = 0.0052
  surface tension liquid-gas: 69.5 ± 0.9 mN/m
m1 = 0.0088
  surface tension liquid-gas: 67.7 ± 0.9 mN/m

## CC/C=C\CCO [(Z)-3-hexen-1-ol] + O
m1 = 0.001
  surface tension liquid-gas: 69.5 ± 0.9 mN/m
m1 = 0.003
  surface tension liquid-gas: 65.2 ± 1.4 mN/m
m1 = 0.005
  surface tension liquid-gas: 63.5 ± 0.8 mN/m
m1 = 0.006
  surface tension liquid-gas: 61.5 ± 0.8 mN/m

## CC/C=C\CCOC(C)=O [(Z)-3-hexenyl acetate] + O
m1 = 0.0006
  surface tension liquid-gas: 66.8 ± 0.9 mN/m
m1 = 0.0015
  surface tension liquid-gas: 62.3 ± 0.8 mN/m
m1 = 0.0019
  surface tension liquid-gas: 58.7 ± 1.1 mN/m

## COC(=O)c1ccccc1O [methyl 2-hydroxybenzoate] + O
m1 = 0.001
  surface tension liquid-gas: 70.8 ± 0.9 mN/m
m1 = 0.0021
  surface tension liquid-gas: 70.1 ± 0.9 mN/m
m1 = 0.0031
  surface tension liquid-gas: 68.9 ± 0.9 mN/m
m1 = 0.0053
  surface tension liquid-gas: 65.2 ± 1.1 mN/m

## O [water] + C=CC(C)(C)O
m2 = 0
  surface tension liquid-gas: 70.8 ± 1 mN/m

## O [water] + CC/C=C\CCO
m2 = 0
  surface tension liquid-gas: 71.5 ± 0.9 mN/m

## O [water] + CC/C=C\CCOC(C)=O
m2 = 0
  surface tension liquid-gas: 70.2 ± 1 mN/m

## O [water] + COC(=O)c1ccccc1O
m2 = 0
  surface tension liquid-gas: 71 ± 0.9 mN/m
